“And” between values parts separate entries of the source, which are not always exact repeats. Identical values can stand only once.
What was measured:
[1] = In vitro-in vivo extrapolation (IVIVE) to estimate Css, human; details: for Css / Css (steady-state concentration, plasma): IVIVE, BW 70 kg; for Css: ID 0.042 mg/kg/hr; for Css (steady-state concentration, plasma): intake dosage 1 mg/kg/day; for fraction unbound: blood, fub=fup/(1-hemocrit ref value), hematocrit 0.45; for Clint: scaled (HPGL 110, Vl 1596 g)
Protocol: Fraction unbound (fu) in plasma (fup) and percent stability calculations are detailed in Supplementary Text S10. Hepatic clearance, the fu in blood (fub) (fu in plasma adjusted for blood:plasma partitioning), and renal clearance were used to derive the steady-state concentration (Css) of each compound that will be used for in vitro–in vivo extrapolation (IVIVE). Renal clearance was calculated using the glomerular filtration rate (a species-dependent constant) and the fub. The Css calculation is detailed in Supplementary Text S11.
Linear regression analysis in conjunction […]
cells in the Clint equation. […]
concentration by the T300 min concentration (Equation E). Chemical stability in plasma was assessed […]
(F) Percent Stability = T300minutesT60minutes∗100 […]
blood (fub) of the parent compound. The Clhepatic calculation is shown in the second part of the denominator of Equation G; it is the product of the species dependent liver blood flow constant, the fub of the parent compound, and the experimentally derived intrins ic clearance (s hown in Equation D) divided by the sum these three values. All values used in Equation G are for first order conditions of metabolism in the liver. All calculations, scalars, and species dependent values used to conduct the Css calculation to facilitate in vitro-in vivo extrapolation (IVIVE) are provided Table S19 within the Excel worksheet, the tab […]
Based on the principle of reverse dosimetry, the Css values derived from IVIVE will be u sed as conversion factors to generate AEDs according to Equation H. In this equation, the AED is linearly related to the in vitro concentration and inversely related to the Css. It is only valid for first-order metabolism that is expected at ambient exposure levels.
(H) AED ൮ mgkg൲ = in vitro concentration (µM )

human hepatocytes = assay: Hepatocyte metabolic stability (clearance) assay, human hepatocytes; details: for Negative Control Data, No cells (NC), Ln Concentration / Negative Control Data, Heat Treated (HT), Ln Concentration / Ln Concentration / Linear Regression Best-Fit Slope (ln concentration vs time): 1000 nM; for Negative Control Data, No cells (NC), Ln Concentration / Negative Control Data, Heat Treated (HT), Ln Concentration / Ln Concentration: Rep 1-3; for Clin vitro / Negative Control Data, Heat Treated (HT), Ln Concentration / Ln Concentration / Linear Regression Best-Fit Slope (ln concentration vs time): human hepatocytes; for Clin vitro: 1 µM; for Linear Regression Best-Fit Slope (ln concentration vs time): time in min
Protocol: (§1) Information on the chemicals and materials used in the hepatocyte metabolic work can be found in Supplementary Text S9 and Table S3. In vitro evaluations of hepatocyte metabolic stability were performed in human and rat hepatocytes, as previously described. Briefly, pooled, cryopreserved hepatocyte suspensions were thawed, assessed for viability, and then diluted in William’s medium E containing dexamethasone and cell maintenance cocktail B to achieve a cell density of 50,000 cells/100 µL. The assay was started by adding hepatocyte suspensions to wells of 96-well polypropylene plates containing an equal volume of media with 2 µM of analyte (final assay concentration: 1 µM). Plates were placed in a 37 °C cell culture incubator (5% CO2) on a shaker set to 200 rpm. Time points assessed were T0, T15, T30, T60, T120, and T240 min. At each time point, the plates were removed from the shaker and the incubates were crashed with an equal volume of ice-cold ACN containing 1.2% FA and 16 ng/mL of ^13C3 -HFPO-DA. After chilling and centrifugation at 4122× g, the supernatants were transferred to new collection plates and stored at −70 °C until analysis for the parent compound on the Waters instrumentation described below. Immediately prior to analysis, samples were thawed, vortexed, and centrifuged at 4200× g, and then diluted 1:4 in 95:5 H2O/ACN with 2.5 mM of ammonium acetate. Negative controls, including no cell controls and metabolically inactivated hepatocytes, were run concurrently to assess the chemical stability over the time course.
(§2) Intrinsic clearance (Clint; hepatic clearance) calculations are detailed in Supplementary Text S9 [57].
(§3) Targeted, quantitative analysis of in vitro hepatocyte metabolic stability and plasma protein binding assay samples was conducted on a Waters Xevo-TQS micro mass spectrometer (Waters, Milford, MA, USA) ultra-high-performance liquid chromatography tandem mass spectrometry system (UPLC-MS/MS), modified with a PFAS analysis kit. Samples were analyzed in negative ion mode with UniSpray ionization. A CORTECS T3 column (Waters CORTECS, 3 × 100 mm, particle size 2.7 µm) was used for chromatographic separation with a flow rate of 0.6 mL/min and a temperature of 55 °C. Gradient elution was used with eluent A (95:5 H2O/ACN) and eluent B (95:5 ACN/H2O) with 2.5 mM of ammonium acetate. The gradient is available in Table S11. Additional details for MS parameters are found in Table S12 and monitored transitions are found in Table S13.
(§4) Table S2: Data processing parameters used with Sciex MarkerView 1.3.1.
(§5) Support ing Text S9: Hepatocyte Metabolic Stability Assay Materials, Chemicals, and Calculations
(§6) Pooled human and rat cryopreserved primary hepatocyte suspensions were both obtained from
(§7) BioIVT, a US Food and Drug Administration-licensed and inspected donor center, and produced using
(§8) non-transplantable tissue.
(§9) William’s E media, dexamet hasone (98% pure), and cell maintenance cocktail B were obtained from
(§10) Thermo Fisher Scientific (Waltham, MA, USA), the OptiThaw hepatocyte kit from Sekisui/Xenotech
(§11) (Tokyo, Japan), and the trypan blue s (Sekisui/ Xenotech, Tokyo, Japan) and the trypan blue solution from […]

rat hepatocytes = assay: Hepatocyte metabolic stability (clearance) assay, rat hepatocytes; details: for Negative Control Data, Heat Treated (HT), 15 min / Negative Control Data, Heat Treated (HT), 240 min: heat treated rat hepatocytes; for Negative Control Data, Heat Treated (HT), 15 min / Negative Control Data, Heat Treated (HT), 240 min / Negative Control Data, No cells (NC), 15 min / Negative Control Data, No cells (NC), 240 min / Ln Concentration, 0 min / Ln Concentration, 15 min / Ln Concentration, 30 min / Ln Concentration, 60 min / Ln Concentration, 120 min / Ln Concentration, 240 min / Linear Regression Best-Fit Slope (Ln concentration vs time): 1000 nM; for Negative Control Data, Heat Treated (HT), 15 min / Negative Control Data, Heat Treated (HT), 240 min / Negative Control Data, No cells (NC), 15 min / Negative Control Data, No cells (NC), 240 min: Ln concentration; for Negative Control Data, Heat Treated (HT), 15 min / Negative Control Data, Heat Treated (HT), 240 min / Negative Control Data, No cells (NC), 15 min / Negative Control Data, No cells (NC), 240 min / Ln Concentration, 0 min / Ln Concentration, 15 min / Ln Concentration, 30 min / Ln Concentration, 60 min / Ln Concentration, 120 min / Ln Concentration, 240 min: Rep 1-3; for Clin vitro: rat hepatocytes, 1 µM; for Ln Concentration, 0 min / Ln Concentration, 15 min / Ln Concentration, 30 min / Ln Concentration, 60 min / Ln Concentration, 120 min / Ln Concentration, 240 min / Linear Regression Best-Fit Slope (Ln concentration vs time): suspended rat hepatocytes; for Linear Regression Best-Fit Slope (Ln concentration vs time): time in min
Protocol: as §1, §2, §3, §4, §5, §6, §7, §8, §9, §10, §11

hepatocytes = assay: Hepatic metabolite formation assay with non-targeted analysis; type: in vitro ADME, human and rat; details: T0 active hepatocyte preparation
Protocol: Extracts of plasma (50 µL), liver (10 mg), and hepatocyte metabolism assay media (10 µL) were analyzed by high-resolution, accurate mass non-targeted analysis (NTA) for the detection and identification of potential biotransformation products of HFPO-TeA. A mixture of ^13C-labeled PFAS compounds (MPAC-C-ES, Wellington Laboratories, Guelph, ON, Canada) were used as tracers. Samples were extracted, as detailed above (in vivo) and below (in vitro), and then analyzed in triplicate in a randomized order on a Sciex X500R QTOF. Additional information on NTA instrumental analysis and data processing parameters is presented in Supplementary Text S8 and Tables S8 and S10 [52]. […] A screening list of potential biotransformation products was generated using the U.S. EPA web application CTS: Chemical Transformation Simulator 1.0 and Biotransformer 3.0 [53, 54]. In some instances, molecular structure predictions were performed using MetFrag.
For the hepatic metabolite formation assays, the procedure described above was followed with the following modifications: assay concentrations of 50 and 100 µM were used, and samples were collected at times T0, T30, T60, and T120 min. Aliquots (10 µL) were combined with an equal volume of H2O. Non-targeted screening of potential biotransformation or degradation products of these samples was performed on the Sciex instrumentation described above.

O=C(O)C(F)(OC(F)(F)C(F)(F)C(F)(F)F)C(F)(F)F (centres unmarked) [HFPO-DA, perfluoro-2-methyl-3-oxahexanoic acid]
Clhep (hepatic clearance) [1]: 0 L/h
Css [1]: 24.67 µg/mL
Css (steady-state concentration, plasma) [1]: 74.75 µM and 74.7454 µM
fraction unbound [1]: 0.0178
Clint [1]: 0 µL/min
Negative Control Data, No cells (NC), Ln Concentration (human hepatocytes; 15 min): 4.4067 and 4.8800 and 5.2467
Negative Control Data, No cells (NC), Ln Concentration (human hepatocytes; 240 min): 4.0348 and 4.0907 and 4.1657
Clin vitro (human hepatocytes): 0 µL/min/106 cells
Negative Control Data, Heat Treated (HT), Ln Concentration (human hepatocytes; 15 min): 4.4067 and 4.8800 and 5.2467
Negative Control Data, Heat Treated (HT), Ln Concentration (human hepatocytes; 240 min): 4.6325 and 4.7203 and 4.8737
Ln Concentration (human hepatocytes; time 0 min): 4.0945 and 4.2370 and 4.1735
Ln Concentration (human hepatocytes; time 15 min): 4.1372 and 3.3218 and 3.8504
Ln Concentration (human hepatocytes; time 30 min): 4.2468 and 4.1368 and 4.2711
Ln Concentration (human hepatocytes; time 60 min): 4.1233 and 4.2750 and 4.2651
Ln Concentration (human hepatocytes; time 120 min): 4.3345 and 4.3751 and 4.3328
Ln Concentration (human hepatocytes; time 240 min): 4.9658 and 4.7177 and 4.8428
Linear Regression Best-Fit Slope (ln concentration vs time) (human hepatocytes): 0.0006364
Negative Control Data, Heat Treated (HT), 15 min (rat hepatocytes): 4.4280 and 4.9483 and 5.2322
Negative Control Data, Heat Treated (HT), 240 min (rat hepatocytes): 4.4378 and 4.5247 and 4.4650
Negative Control Data, No cells (NC), 15 min (rat hepatocytes): 4.4280 and 4.9483 and 5.2322
Negative Control Data, No cells (NC), 240 min (rat hepatocytes): 4.5318 and 4.4615 and 4.4489
Clin vitro (rat hepatocytes): 0 µL/min/106 cells
Ln Concentration, 0 min (rat hepatocytes): 4.5114 and 4.4660 and 4.4552
Ln Concentration, 15 min (rat hepatocytes): 4.5017 and 4.4578 and 4.5341
Ln Concentration, 30 min (rat hepatocytes): 4.4026 and 4.3249 and 4.4576
Ln Concentration, 60 min (rat hepatocytes): 4.2774 and 4.4540 and 4.5417
Ln Concentration, 120 min (rat hepatocytes): 4.3832 and 4.5273 and 4.3707
Ln Concentration, 240 min (rat hepatocytes): 4.5604 and 4.5454 and 4.5567
Linear Regression Best-Fit Slope (Ln concentration vs time) (rat hepatocytes): 0.0002303

O=C(O)C(F)(OC(F)(F)C(F)(OC(F)(F)C(F)(F)C(F)(F)F)C(F)(F)F)C(F)(F)F (centres unmarked) [HFPO-TA, perfluoro-(2,5-dimethyl-3,6-dioxanonanoic) acid]
Clhep (hepatic clearance) [1]: 0 L/h
Css [1]: 186.41 µg/mL
Css (steady-state concentration, plasma) [1]: 375.76 µM and 375.7648 µM
fraction unbound [1]: 0.0024
Clint [1]: 0 µL/min
Negative Control Data, No cells (NC), Ln Concentration (human hepatocytes; 15 min): 4.3597 and 5.0085 and 5.1884
Negative Control Data, No cells (NC), Ln Concentration (human hepatocytes; 240 min): 3.9371 and 3.9316 and 3.8367
Clin vitro (human hepatocytes): 0 µL/min/106 cells
Negative Control Data, Heat Treated (HT), Ln Concentration (human hepatocytes; 15 min): 4.3597 and 5.0085 and 5.1884
Negative Control Data, Heat Treated (HT), Ln Concentration (human hepatocytes; 240 min): 4.9004 and 4.9391 and 4.9107
Ln Concentration (human hepatocytes; time 0 min): 3.4977 and 3.5184 and 3.3762
Ln Concentration (human hepatocytes; time 15 min): 4.0516 and 4.0675 and 3.8232
Ln Concentration (human hepatocytes; time 30 min): 3.7647 and 3.6457 and 3.2925
Ln Concentration (human hepatocytes; time 60 min): 4.1190 and 4.0115 and 3.2249
Ln Concentration (human hepatocytes; time 120 min): 4.2452 and 3.9281 and 3.6055
Ln Concentration (human hepatocytes; time 240 min): 4.5149 and 4.7648 and 4.7557
Linear Regression Best-Fit Slope (ln concentration vs time) (human hepatocytes): 0.000858
abundance relative to HFPO-TeA (hepatocytes): < 1%
Negative Control Data, Heat Treated (HT), 15 min (rat hepatocytes): 4.1725 and 4.8897 and 5.4522
Negative Control Data, Heat Treated (HT), 240 min (rat hepatocytes): 4.9004 and 4.9391 and 4.9107
Negative Control Data, No cells (NC), 15 min (rat hepatocytes): 4.1725 and 4.8897 and 5.4522
Negative Control Data, No cells (NC), 240 min (rat hepatocytes): 3.9230 and 4.2019 and 3.8754
Clin vitro (rat hepatocytes): 0 µL/min/106 cells
Ln Concentration, 0 min (rat hepatocytes): 4.5979 and 4.6454 and 4.5374
Ln Concentration, 15 min (rat hepatocytes): 4.8189 and 4.7145 and 4.8521
Ln Concentration, 30 min (rat hepatocytes): 4.7856 and 4.6050 and 4.6111
Ln Concentration, 60 min (rat hepatocytes): 4.8438 and 4.7495 and 4.8027
Ln Concentration, 120 min (rat hepatocytes): 4.6843 and 4.6317 and 4.5468
Ln Concentration, 240 min (rat hepatocytes): 4.7393 and 4.9247 and 4.8505
Linear Regression Best-Fit Slope (Ln concentration vs time) (rat hepatocytes): 0.0003164
